Measurements taken from ChEMBL document CHEMBL5055658, “Discovery of a Highly Potent and Selective Degrader Targeting Hematopoietic Prostaglandin D Synthase via In Silico Design” (J Med Chem, 2021).
The source made the active and inactive calls. The calls are words filed in the database; no cut-off is given here.

How the values were obtained:
[1] = target: Hematopoietic prostaglandin D synthase (Homo sapiens, UniProt O60760); experiment: Inhibition of H-PGDS (unknown origin) using fluorescent probe by competition binding assay
Sequence of Hematopoietic prostaglandin D synthase (O60760 whole entry): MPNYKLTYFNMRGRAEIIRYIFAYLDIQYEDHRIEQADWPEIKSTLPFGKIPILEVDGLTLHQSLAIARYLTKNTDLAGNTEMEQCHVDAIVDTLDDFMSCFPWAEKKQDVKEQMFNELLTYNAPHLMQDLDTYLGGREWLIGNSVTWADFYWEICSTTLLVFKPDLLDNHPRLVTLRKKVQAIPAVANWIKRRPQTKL

KU812 [2] = experiment: Suppression of PGD2 production in human KU812 cells measured in presence of compound 43 up to 3000 pM incubated for 6 hrs by LC-MS analysis; type: functional, cell-based
[3] = target: T1, Protein cereblon/Hematopoietic prostaglandin D synthase (Homo sapiens, UniProt O60760+Q96SW2); experiment: PROTAC activity at H-PGDS/CRBN in human KU812 cells assessed as H-PGDS degradation measured after 24 hrs by Western blot analysis; type: cell-based; details: KU812 cell line
Target sequence in this assay (O60760 whole entry, looked up): as the sequence (O60760 whole entry) above
Target sequence in this assay (Q96SW2 whole entry, looked up): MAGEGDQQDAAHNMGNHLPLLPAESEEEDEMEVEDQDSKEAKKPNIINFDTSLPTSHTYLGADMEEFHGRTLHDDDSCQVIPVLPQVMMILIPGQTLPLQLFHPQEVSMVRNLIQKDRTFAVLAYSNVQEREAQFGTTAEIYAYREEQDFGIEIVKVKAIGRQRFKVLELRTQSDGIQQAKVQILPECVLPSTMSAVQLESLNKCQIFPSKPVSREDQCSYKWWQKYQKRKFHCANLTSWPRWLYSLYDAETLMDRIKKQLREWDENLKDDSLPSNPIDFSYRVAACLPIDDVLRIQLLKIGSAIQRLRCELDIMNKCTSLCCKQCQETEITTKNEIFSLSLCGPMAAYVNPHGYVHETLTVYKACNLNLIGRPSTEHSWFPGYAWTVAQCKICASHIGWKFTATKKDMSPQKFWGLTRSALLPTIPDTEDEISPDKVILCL

[4] = target: T1, Protein cereblon/Hematopoietic prostaglandin D synthase; experiment: PROTAC activity at H-PGDS/CRBN in human KU812 cells assessed as reduction in H-PGDS level at 10 pM measured after 6 hrs by Western blot analysis relative to control; type: cell-based; set-up: scale not given: the % may be the effect or the level left; details: KU812 cell line
Target sequence in this assay (O60760 whole entry, looked up): as the sequence (O60760 whole entry) above
Target sequence in this assay (Q96SW2 whole entry, looked up): as the sequence (Q96SW2 whole entry, looked up) above

[5] = target: T1, Protein cereblon/Hematopoietic prostaglandin D synthase; experiment: PROTAC activity at H-PGDS/CRBN in human MEG01s cells assessed as H-PGDS degradation measured after 6 to 24 hrs by Western blot analysis; type: cell-based; details: time 6-24 hrs
Target sequence in this assay (O60760 whole entry, looked up): as the sequence (O60760 whole entry) above
Target sequence in this assay (Q96SW2 whole entry, looked up): as the sequence (Q96SW2 whole entry, looked up) above

[6] = target: T1, Protein cereblon/Hematopoietic prostaglandin D synthase; experiment: PROTAC activity at H-PGDS/CRBN in human KU812 cells assessed as reduction in H-PGDS level at 100 pM measured after 6 hrs by Western blot analysis relative to control; type: cell-based; set-up: scale not given: the % may be the effect or the level left; details: KU812 cell line
Target sequence in this assay (O60760 whole entry, looked up): as the sequence (O60760 whole entry) above
Target sequence in this assay (Q96SW2 whole entry, looked up): as the sequence (Q96SW2 whole entry, looked up) above

KU812 [7] = experiment: Effect on H-PGDS mRNA level in human KU812 cells measured up to 10000 pM incubated for 6 hrs by quantitative RT-PCR analysis; type: functional, cell-based
[8] = target: T1, Protein cereblon/Hematopoietic prostaglandin D synthase; experiment: PROTAC activity at H-PGDS/CRBN in human KU812 cells assessed as H-PGDS degradation in presence of MLN7243 at 100 pM measured after 6 hrs by Western blot analysis; type: cell-based; details: KU812 cell line
Target sequence in this assay (O60760 whole entry, looked up): as the sequence (O60760 whole entry) above
Target sequence in this assay (Q96SW2 whole entry, looked up): as the sequence (Q96SW2 whole entry, looked up) above

[9] = target: T1, Protein cereblon/Hematopoietic prostaglandin D synthase; experiment: PROTAC activity at H-PGDS/CRBN in human KU812 cells assessed as H-PGDS degradation measured after 6 hrs by Western blot analysis; type: cell-based; details: for DC50: ku812 cell line
[10] = target: T1, Protein cereblon/Hematopoietic prostaglandin D synthase; experiment: PROTAC activity at H-PGDS/CRBN in human KU812 cells assessed as H-PGDS degradation in presence of MG132 at 100 pM measured after 6 hrs by Western blot analysis; type: cell-based; details: KU812 cell line
Target sequence in this assay (O60760 whole entry, looked up): as the sequence (O60760 whole entry) above
Target sequence in this assay (Q96SW2 whole entry, looked up): as the sequence (Q96SW2 whole entry, looked up) above

[11] = target: T1, Protein cereblon/Hematopoietic prostaglandin D synthase; experiment: PROTAC activity at H-PGDS/CRBN in human KU812 cells assessed as H-PGDS degradation in presence of pomalidomide measured after 6 hrs by Western blot analysis; type: cell-based; details: KU812 cell line

Compound | inhibition [1] | Activity (KU812 [2]) | IC50 [1] [nM] | DC50 [9] [nM] | other results
O=C1CCC(N2C(=O)c3cccc(NCCNC(=O)C4CCN(c5ccc(NC(=O)c6cnc(Oc7ccccc7)nc6)cc5)CC4)c3C2=O)C(=O)N1 (stereo not given) | inactive | – | – | – | –
O=C(Nc1ccc(N2CCC(C(=O)N3CCOCC3)CC2)cc1)c1cnc(Oc2ccccc2)nc1 | – | Active | 170 | – | –
O=C1CCC(N2C(=O)c3cccc(N4CCN(C(=O)C5CCN(c6ccc(NC(=O)c7cnc(Oc8ccccc8)nc7)cc6)CC5)CC4)c3C2=O)C(=O)N1 (stereo not given) | – | Active | 170 | 0.0173 | Activity [3]: inactive; Activity [4]: 12.9%; Activity [5]: Active; Activity [6]: 30.8%; Activity (KU812 [7]): inactive; Activity [8]: inactive; Activity [10]: inactive; Activity [11]: inactive
CN1C(=O)CCC(N2C(=O)c3cccc(N4CCN(C(=O)C5CCN(c6ccc(NC(=O)c7cnc(Oc8ccccc8)nc7)cc6)CC5)CC4)c3C2=O)C1=O (stereo not given) | – | Active | 140 | 0.024 | –
Nc1cccc2c1C(=O)N(C1CCC(=O)NC1=O)C2=O (stereo not given) | – | inactive | – | – | –
O=C1CCC(N2C(=O)c3cccc(N4CCN(c5ccc(NC(=O)c6cnc(Oc7ccccc7)nc6)cc5)CC4)c3C2=O)C(=O)N1 (stereo not given) | inactive | – | – | – | Activity ([9]; KU812 cell line): inactive
